Experimental data as given in patent US20050261264A1, “Rare-earth ternary complex” (priority 2000, published 2005).

Assays:
Assay type in all cases: physicochemical
[1] = Miscibility with solvents, visual evaluation at 5 wt %; design: key: ⊚: dissolves at room temperature; ◯: dissolves when heated for 5 minutes at 40° C.; Δ: dissolves under heating, but cooling precipitates crystals; X: does not dissolve; conditions: complex added at 5 wt %
Experimental: (§1) The miscibility of the rare earth complex with various media was evaluated as follows.
1) Miscibility with Solvents

[2] = Miscibility with a polymer matrix, visual evaluation; design: key to Miscibility, PMMA: ⊚: dissolves up to 30 wt %; ◯: dissolves up to 5 wt %; Δ: disperses up to 5 wt %, but there is turbidity; X: repelled at the polymer surface
Experimental: as §1
2) Miscibility with a Polymer Matrix
The rare earth complex serving as the sample was added in the concentrations listed with the evaluation criteria below relative to various media, and the miscibility was visually evaluated according to the following criteria. • ⊚: dissolves up to 30 wt % • ◯: dissolves up to 5 wt % • Δ: disperses up to 5 wt %, but there is turbidity • X: repelled at the polymer surface

[3] = Number of moles of bound water per mole of complex (TG-DTA); conditions: for Bound water (number of moles of bound water per mole of complex): Table 1, dried samples for the ternary complexes
Experimental: The number of moles of bound water per mole of complex was measured using a TG-DTA 2000 from MAC Science.
A 20 g quantity of Eu(PMS)3 was added to 100 mL of isopropanol, then 43 g ([…] the molar amount of the Eu(PMS)3) of triphenylphosphine oxide (hereinafter referred to as TPPO) was added, and the system was refluxed for 3 hours, and then gradually cooled. The resulting white powder was filtered off. The white powder thus obtained was washed with hot n-hexane, and recrystallized with water-methanol to obtain 44 g of Eu(PMS)3(TPPO)8 in the form of white acicular crystals (yield: 85%). The TG-DTA was measured for these crystals, and it was found from the weight reduction at 100° C. that the number of moles of bound water per mole of complex was 2.93. The IR, NMR, UV absorption characteristics, and elemental analysis results for the obtained Eu(PMS)3(TPPO)8(H2O)2.93 are given below.
Eu(PMS)3(TPPO)8(H2O)2.93 obtained by the above synthesis method was dried in vacuo for 3 hours at 140° C. and a reduced pressure of […]. TG-DTA measurement for the resulting white powder was carried out to obtain a weight reduction at 100° C. It was found from the obtained value that the number of moles of bound water per mole of complex was 0.18.

[4] = Luminescence quantum yield and luminescence intensity in solution
Experimental: (§2) The intensity of luminescence and the luminescence quantum yield, the quotient of dividing the number of photons emitted from a sample by the number of photons absorbed into the sample, were measured with an SS-25 from JASCO Corporation.
The luminescence quantum yield of an acetonitrile solution of the Eu(PMS)3(TPPO)8 obtained in Example 1 (europium ion concentration: 0.05 mol/L) was measured (excitation wavelength: 465 nm, maximum luminescence wavelength: 612 nm, luminescence wavelength used in measurement: 612 nm).
The solutions prepared in Examples 12 to 14 and Comparative Examples 7 to 9 and Comparative Example B were measured for luminescence intensity at the respective maximum luminescence wavelengths.
The relative luminescence intensity of the solutions used in Examples 12 to 14 and Comparative Example B: (luminescence intensity in each of Examples 12 to 14)/(luminescence intensity in Comparative Example 7) was calculated, letting 1 be the luminescence intensity in Comparative Example 7 (solution of a rare earth complex in which the ligand Z was not coordinated).
Similarly, the relative luminescence intensity in Comparative Example 9: (luminescence intensity in Comparative Example 9)/(luminescence intensity in Comparative Example 8) was calculated, letting 1 be the luminescence intensity in Comparative Example 8 (solution of a known β-diketone-type of rare earth complex in which the ligand Z was not coordinated). The relative luminescence intensity of the solution used in Comparative Example B was 1.6 times.
The luminescence quantum yield of an acetone-d6 solution of the Nd(PMS)3(TPPO)8 obtained in Example 2 (neodymium ion concentration: 0.05 mol/L) was measured (excitation wavelength: 585 nm, maximum luminescence wavelength: 1064 nm, luminescence wavelength used in measurement: 1064 nm).
The solutions prepared in Examples 15 and 16 and Comparative Examples 10 were measured for luminescence intensity at the respective maximum luminescence wavelengths. The relative luminescence intensity in Examples 15 and 16: (luminescence intensity in each of Examples 15 and 16)/(luminescence intensity in Comparative Example 10) was calculated, letting 1 be the luminescence intensity in Comparative Example 10 (rare earth complex in which the ligand Z was not coordinated).

[5] = Luminescence quantum yield and luminescence intensity in PMMA polymer matrix composition; conditions: PMMA rod; for Relative luminescence intensity: Nd 0.7 wt %, relative to Nd(PMS)3 (Comparative Example 12) = 1; for Luminescence quantum yield: rare earth ion 0.7 wt %, excitation 585 nm, luminescence 1064 nm
Experimental: as §2
A 1 mL quantity of refined anhydrous methyl methacrylate (MMA), 0.5 mg of AIBN, and 148 mg (0.7 wt %) as the rare earth ion concentration) of the Eu (PMS)3 (TPPO)8 obtained in Example 1 were mixed, the mixture was transferred to a Pyrex tube, and the inside of the tube was deaerated and then sealed. By reacting for 5 hours at 60° C., the polymerization of MMA was carried out. The resulting PMMA containing Eu(PMS)3 (TPPO)8 was taken out of the Pyrex tube, and a rod-shaped polymer matrix composition was obtained.
(§3) The polymer matrix compositions prepared in Examples 17 to 19 and Comparative Example 11 were measured for luminescence intensity at the respective maximum luminescence wavelengths. The relative luminescence intensity in Examples 17 to 19: (luminescence intensity in each of Examples 17 to 19)/(luminescence intensity in Comparative Example 11) was calculated, letting 1 be the luminescence intensity in Comparative Example 11 (rare earth complex in which the ligand Z was not coordinated).
A rod-shaped polymer matrix composition containing […] was obtained in the same manner as in Example 17, except that 148 mg (rare earth ion concentration: 0.7 wt %) of the Nd(PMS)3 (TPPO)8 obtained in Example 2 was used instead of Eu(PMS)3 (TPPO)8.
as §3, with “20 and 21” for “17 to 19”, “12” for “11”, “20 and 21:” for “17 to 19:”, “20 and 21)/(luminescence” for “17 to 19)/(luminescence”, “12)” for “11)”

[6] = acetonitrile solution, Eu 0.05 mol/L, relative to Eu(HFA)3 (Comparative Example 8) = 1
[7] = acetone-d6 solution, Nd 0.05 mol/L, relative to Nd(PMS)3 (Comparative Example 10) = 1
[8] = acetone-d6 solution, neodymium ion 0.05 mol/L, excitation 585 nm, luminescence 1064 nm
[9] = acetonitrile solution, europium ion 0.05 mol/L, excitation 465 nm, luminescence 612 nm

Row | Structure (SMILES) | Miscibility, Acetone [1] | Miscibility, Chloroform [1] | Miscibility, Toluene [1] | Miscibility, Water [1] | Miscibility, Epoxy resin [2] | Miscibility, Nafion [2] | Miscibility, PMMA [2] | Bound water (number of moles of bound water per mole of complex) [3] | Relative luminescence intensity [4, 6] | Number of moles of bound water per mole of complex ([3]; after drying in vacuo at 140° C.) | Number of moles of bound water per mole of complex ([3]; before drying (crystals as obtained), weight reduction at 100° C.) | Relative luminescence intensity [4, 7] | Luminescence quantum yield [4, 8] | Relative luminescence intensity [5] | Luminescence quantum yield [5] | Luminescence quantum yield [4, 9] | Relative luminescence intensity ([4]; acetonitrile solution, Eu 0.05 mol/L, relative to Eu(PMS)3 (Comparative Example 7) = 1)
1 | O=C(C=C([O-])C(F)(F)F)C(F)(F)F.O=C(C=C([O-])C(F)(F)F)C(F)(F)F.O=C(C=C([O-])C(F)(F)F)C(F)(F)F.O=P(c1ccccc1)(c1ccccc1)c1ccccc1.O=P(c1ccccc1)(c1ccccc1)c1ccccc1.[Eu+3] [Eu(HFA)3(TPPO)2, reference compound] | ⊚ | ◯ | ◯ | X | ◯ (dissolves up to 5 wt %) | Δ (disperses up to 5 wt %, but there is turbidity) | Δ (disperses up to 5 wt %, but there is turbidity) | 0.00 | 4.6 |  |  |  |  |  |  |  | 
2 | O=P(c1ccccc1)(c1ccccc1)c1ccccc1.O=P(c1ccccc1)(c1ccccc1)c1ccccc1.O=P(c1ccccc1)(c1ccccc1)c1ccccc1.O=P(c1ccccc1)(c1ccccc1)c1ccccc1.O=P(c1ccccc1)(c1ccccc1)c1ccccc1.O=P(c1ccccc1)(c1ccccc1)c1ccccc1.O=P(c1ccccc1)(c1ccccc1)c1ccccc1.O=P(c1ccccc1)(c1ccccc1)c1ccccc1.O=S(=O)([N-]S(=O)(=O)C(F)(F)F)C(F)(F)F.O=S(=O)([N-]S(=O)(=O)C(F)(F)F)C(F)(F)F.O=S(=O)([N-]S(=O)(=O)C(F)(F)F)C(F)(F)F.[Nd+3] [Nd(PMS)3(TPPO)8] | ⊚ | ⊚ | ◯ | X | ◯ (dissolves up to 5 wt %) | ◯ (dissolves up to 5 wt %) | ◯ (dissolves up to 5 wt %) | 0.24 |  | 0.24 | 3.41 | 1.4 | 1.1% | 80 | 0.8% |  | 
3 | O=S(=O)([N-]S(=O)(=O)C(F)(F)F)C(F)(F)F.O=S(=O)([N-]S(=O)(=O)C(F)(F)F)C(F)(F)F.O=S(=O)([N-]S(=O)(=O)C(F)(F)F)C(F)(F)F.O=S(c1ccccc1)c1ccccc1.O=S(c1ccccc1)c1ccccc1.O=S(c1ccccc1)c1ccccc1.O=S(c1ccccc1)c1ccccc1.O=S(c1ccccc1)c1ccccc1.O=S(c1ccccc1)c1ccccc1.O=S(c1ccccc1)c1ccccc1.O=S(c1ccccc1)c1ccccc1.[Nd+3] [Nd(PMS)3(DPSO)8] | ⊚ | ◯ | ◯ | X | ◯ (dissolves up to 5 wt %) | ◯ (dissolves up to 5 wt %) | ◯ (dissolves up to 5 wt %) | 0.00 |  |  |  | 1.6 | 1.3% | 90 | 0.9% |  | 
4 | O=S(=O)([N-]S(=O)(=O)C(F)(F)F)C(F)(F)F.O=S(=O)([N-]S(=O)(=O)C(F)(F)F)C(F)(F)F.O=S(=O)([N-]S(=O)(=O)C(F)(F)F)C(F)(F)F.[Nd+3] [Nd(PMS)3, reference compound] | ⊚ | X | X | ⊚ | Δ (disperses up to 5 wt %, but there is turbidity) | Δ (disperses up to 5 wt %, but there is turbidity) | X | 2.32 |  |  |  | 1.0 | 0.8% | 1.0 | <0.1% |  | 
5 | O=C(C=C([O-])C(F)(F)F)C(F)(F)F.O=C(C=C([O-])C(F)(F)F)C(F)(F)F.O=C(C=C([O-])C(F)(F)F)C(F)(F)F.[Eu+3] [Eu(HFA)3, reference compound] | ⊚ | X | X | X | ◯ (dissolves up to 5 wt %) | Δ (disperses up to 5 wt %, but there is turbidity) | X | 2.00 | 1.0 |  |  |  |  |  |  | 8.0% | 
6 | O=S(=O)([N-]S(=O)(=O)C(F)(F)F)C(F)(F)F.O=S(=O)([N-]S(=O)(=O)C(F)(F)F)C(F)(F)F.O=S(=O)([N-]S(=O)(=O)C(F)(F)F)C(F)(F)F.[2H]C([2H])([2H])S(=O)C([2H])([2H])[2H].[2H]C([2H])([2H])S(=O)C([2H])([2H])[2H].[2H]C([2H])([2H])S(=O)C([2H])([2H])[2H].[2H]C([2H])([2H])S(=O)C([2H])([2H])[2H].[2H]C([2H])([2H])S(=O)C([2H])([2H])[2H].[2H]C([2H])([2H])S(=O)C([2H])([2H])[2H].[2H]C([2H])([2H])S(=O)C([2H])([2H])[2H].[2H]C([2H])([2H])S(=O)C([2H])([2H])[2H].[Eu+3] [Eu(PMS)3 (DMSO-d6)8, reference compound] |  |  |  |  |  |  |  |  |  |  |  |  |  |  |  | 44.0% | 1.6
